Experimental data taken from US20250325531A1, “TREATMENT OF SYSTOLIC DYSFUNCTION” (MyoKardia, Inc., priority 2024, published 2025).

Experiment: Single ascending oral dose pharmacokinetics in healthy volunteers (plasma and urine, LC MS/MS)
Type: in vivo, human
Settings: for dose recovered in urine: 0-48 hours urine
Source text: This example describes the first-in-human study of Compound I. Based on its mechanism of action, Compound I may offer a targeted therapy for patients with DCM caused by genetic or nongenetic mechanisms. The study was a randomized, double-blind, placebo-controlled, sequential group, single-ascending (oral) dose study in healthy subjects aged 18-55 years. Eight dosing cohorts, each comprising eight healthy subjects, were enrolled. Within each cohort, subjects were randomized 6:2 to Compound I: placebo.
Subjects were resident at the clinical site for up to 5 days and 4 nights, from Day-1 (the day before dosing) to Day 4, and received a single dose of Compound I or placebo on Day 1. ECG telemetry was initiated 1 hour predose and continued through 48 hours postdose (Day 3). Any subject with a predose resting HR ≥80 beats per minute was considered ineligible and not treated. […] Subjects returned for a safety follow-up visit 7 days (+1 day) after dosing.
All randomized study subjects received either Compound I or matching placebo as a single oral dose after a fasting period of at least 6 hours. Compound I drug substance is a crystalline, free-base, synthetic molecule with a molecular weight of 435.4 g/mol.
Compound I was provided as a powder for oral suspension. Placebo was provided as calcium carbonate powder. Both treatments were dosed orally as a suspension. The suspension was made using Ora-Plus® suspending vehicle (Perrigo) and a cherry syrup flavoring vehicle (Humco), mixed 50% to 50%. The suspension was followed by approximately 100 mL water. The suspension was made up within 14 days from the time in which it was dosed which was consistent with the stability data on the suspension. The suspension was made up so the volume administered to the subjects who received Compound I was the same at 20 mL.
Each subject received a dose according to the cohort in which they were enrolled. Cohorts were enrolled sequentially, with each cohort receiving an escalated dose of Compound I. The doses administered were 3 mg, 10 mg, 25 mg, 50 mg, 100 mg, 175 mg, 350 mg, and 525 mg, respectively.
The concentrations of Compound I in human plasma and urine were quantitated by high performance liquid chromatography with tandem mass spectrometric detection (LC MS/MS) (Biological sample analysis study report Alturas AD17-726). Plasma samples were extracted by protein precipitation with acetonitrile containing internal standard MYK-5654. The calibration curves were linear over concentration range of 0.500 to 1000 ng/mL with a lower limit of quantification (LLOQ) of 0.500 ng/mL.
The PK Population included all subjects who received Compound I. Blood samples were collected for PK assessments. The actual timing of the samples may have been modified and/or up to an additional 2 samples may have been requested by the SRC after review of the data from previous cohorts. It was important that PK sampling occurred as closely as possible to the scheduled time (+10%). Both blood and urine samples were used for PK assessments.
In addition, for subjects who received placebo, a single plasma sample near the predicted tmax of Compound I was evaluated to confirm the lack of circulating Compound I. Plasma concentration data for Compound I was summarized using descriptive statistics, including mean, standard deviation (SD), median, minimum, and maximum values, and percent coefficient of variation. Other PK parameters included (but were not limited to) Cmax, tmax, AUC, t1/2, and MRT. Additionally, the apparent terminal-phase terminal half-life was calculated. The dose proportionality of AUC and Cmax was explored.

With Cn1cc(S(=O)(=O)[C@@](C)(F)C2CCN(C(=O)Nc3ccon3)CC2)c(C(F)F)n1 [Compound I, (R)-4-(1-((3-(difluoromethyl)-1-methyl-1H-pyrazol-4-yl)sulfonyl)-1-fluoroethyl)-N-(isoxazol-3-yl) piperidine-1-carboxamide] the “dose recovered in urine” value (350 mg) was “approximately 6.0%”, the “dose recovered in urine” value (525 mg) was ~8.6% and the “AUC0-48 Geometric Mean” value (3 mg) was 676.32 ng·h/mL. The “AUC0-last Median” value (3 mg) was 713.41 ng·h/mL, the “AUC0-∞ Geometric Mean” value (3 mg) was 722.23 ng·h/mL and the “CL/F Geometric Mean” value (3 mg) was 4.15 L/h. The “CL/F Mean” value (3 mg) was 4.26 L/h, the “CL/F Median” value (3 mg) was 4.22 L/h and the “Extrapolation Geometric Mean” value (3 mg) was 2.71%. For the same compound, the “Extrapolation Mean” value (3 mg) was 2.78%, the “Extrapolation Median” value (3 mg) was 2.82% and the “Half-Life Lambda Z Geometric Mean” value (3 mg) was 11.10 h. For the same compound, the “CL/F Geometric Mean” value (10 mg) was 2.99 L/h, the “CL/F Mean” value (10 mg) was 3.06 L/h and the “CL/F Median” value (10 mg) was 2.88 L/h. For the same compound, the “Cmax Mean” value (10 mg) was 139.17 ng/mL, the “Extrapolation Geometric Mean” value (10 mg) was 1.59% and the “Extrapolation Mean” value (10 mg) was 1.90%. The “Extrapolation Median” value (10 mg) was 2.24%, the “Half-Life Lambda Z Mean” value (10 mg) was 13.36 h and the “Mean Residence Time Geometric Mean” value (10 mg) was 21.06 h. For the same compound, the “Tmax Geometric Mean” value (10 mg) was 4.80 h, the “Tmax Mean” value (10 mg) was 4.85 h and the “AUC0-last Geometric Mean” value (25 mg) was 6924.51 ng·h/mL. The “AUC0-last Mean” value (25 mg) was 7161.62 ng·h/mL, the “CL/F Geometric Mean” value (25 mg) was 3.55 L/h and the “CL/F Mean” value (25 mg) was 3.69 L/h. The “CL/F Median” value (25 mg) was 3.32 L/h, the “Extrapolation Geometric Mean” value (25 mg) was 1.45% and the “Extrapolation Mean” value (25 mg) was 1.72%. For the same compound, the “Extrapolation Median” value (25 mg) was 1.92%, the “Half-Life Lambda Z Geometric Mean” value (25 mg) was 13.14 h and the “Half-Life Lambda Z Mean” value (25 mg) was 13.28 h. The “Mean Residence Time Geometric Mean” value (25 mg) was 20.60 h, the “Mean Residence Time Median” value (25 mg) was 20.07 h and the “Tmax Geometric Mean” value (25 mg) was 4.64 h. For the same compound, the “Tmax Mean” value (25 mg) was 4.67 h, the “AUC0-last Geometric Mean” value (50 mg) was 11075.03 ng·h/mL and the “AUC0-last Median” value (50 mg) was 11185.34 ng·h/mL. The “AUC0-∞ Geometric Mean” value (50 mg) was 11177.07 ng·h/mL, the “AUC0-∞ Median” value (50 mg) was 11204.30 ng·h/mL and the “CL/F Geometric Mean” value (50 mg) was 4.47 L/h. For the same compound, the “CL/F Mean” value (50 mg) was 4.53 L/h, the “CL/F Median” value (50 mg) was 4.46 L/h and the “Extrapolation Geometric Mean” value (50 mg) was 0.46%. The “Extrapolation Mean” value (50 mg) was 0.91%, the “Extrapolation Median” value (50 mg) was 0.46% and the “Mean Residence Time Geometric Mean” value (50 mg) was 20.79 h. The “Mean Residence Time Mean” value (50 mg) was 20.98 h, the “Tmax Geometric Mean” value (50 mg) was 4.66 h and the “Tmax Mean” value (50 mg) was 4.69 h. For the same compound, the “AUC0-48 Median” value (100 mg) was 21561.98 ng·h/mL, the “AUC0-last Geometric Mean” value (100 mg) was 21734.19 ng·h/mL and the “AUC0-last Median” value (100 mg) was 22401.00 ng·h/mL. For the same compound, the “CL/F Geometric Mean” value (100 mg) was 4.69 L/h, the “CL/F Mean” value (100 mg) was 4.76 L/h and the “CL/F Median” value (100 mg) was 5.33 L/h. For the same compound, the “Extrapolation Geometric Mean” value (100 mg) was 0.36%, the “Extrapolation Mean” value (100 mg) was 5.48% and the “Extrapolation Median” value (100 mg) was 0.14%. For the same compound, the “Half-Life Lambda Z Geometric Mean” value (100 mg) was 11.08 h, the “Tmax Mean” value (100 mg) was 4.50 h and the “AUC0-48 Median” value (175 mg) was 32704.35 ng·h/mL. For the same compound, the “AUC0-last Geometric Mean” value (175 mg) was 38235.62 ng·h/mL, the “CL/F Geometric Mean” value (175 mg) was 4.57 L/h and the “CL/F Mean” value (175 mg) was 4.66 L/h. For the same compound, the “CL/F Median” value (175 mg) was 4.45 L/h, the “Cmax Geometric Mean” value (175 mg) was 1301.37 ng/mL and the “Cmax Mean” value (175 mg) was 1316.17 ng/mL. For the same compound, the “Extrapolation Geometric Mean” value (175 mg) was 0.14%, the “Extrapolation Mean” value (175 mg) was 0.17% and the “Extrapolation Median” value (175 mg) was 0.16%. For the same compound, the “Half-Life Lambda Z Mean” value (175 mg) was 15.83 h, the “Mean Residence Time Geometric Mean” value (175 mg) was 24.44 h and the “Mean Residence Time Median” value (175 mg) was 24.43 h. The “Tmax Geometric Mean” value (175 mg) was 5.07 h, the “Tmax Mean” value (175 mg) was 5.11 h and the “AUC0-24 Geometric Mean” value (350 mg) was 44703.88 ng·h/mL. The “AUC0-48 Median” value (350 mg) was 66430.88 ng·h/mL, the “AUC0-last Geometric Mean” value (350 mg) was 73185.05 ng·h/mL and the “AUC0-last Median” value (350 mg) was 76161.9 ng·h/mL. The “AUC0-∞ Geometric Mean” value (350 mg) was 73626.42 ng·h/mL, the “AUC0-∞ Median” value (350 mg) was 76241.22 ng·h/mL and the “CL/F Geometric Mean” value (350 mg) was 4.75 L/h. The “CL/F Mean” value (350 mg) was 4.95 L/h, the “CL/F Median” value (350 mg) was 4.75 L/h and the “Extrapolation Geometric Mean” value (350 mg) was 0.37%. The “Extrapolation Mean” value (350 mg) was 0.60%, the “Extrapolation Median” value (350 mg) was 0.43% and the “Half-Life Lambda Z Mean” value (350 mg) was 14.66 h. The “Mean Residence Time Median” value (350 mg) was 22.73 h, the “Tmax Geometric Mean” value (350 mg) was 4.84 h and the “Tmax Mean” value (350 mg) was 4.95 h. The “AUC0-24 Median” value (350 mg + 525 mg) was 38537.03 ng·h/mL, the “AUC0-∞ Mean” value (350 mg + 525 mg) was 74358.88 ng·h/mL and the “CL/F Geometric Mean” value (350 mg + 525 mg) was 6.04 L/h. The “CL/F Mean” value (350 mg + 525 mg) was 6.51 L/h, the “CL/F Median” value (350 mg + 525 mg) was 6.10 L/h and the “Extrapolation Geometric Mean” value (350 mg + 525 mg) was 0.29%. For the same compound, the “Extrapolation Mean” value (350 mg + 525 mg) was 0.59%, the “Extrapolation Median” value (350 mg + 525 mg) was 0.32% and the “Half-Life Lambda Z Geometric Mean” value (350 mg + 525 mg) was 14.51 h. The “Mean Residence Time Mean” value (350 mg + 525 mg) was 24.28 h, the “Tmax Geometric Mean” value (350 mg + 525 mg) was 4.89 h and the “Tmax Mean” value (350 mg + 525 mg) was 4.96 h. For the same compound, the “AUC0-24 Median” value (525 mg) was 38212.84 ng·h/mL, the “AUC0-48 Geometric Mean” value (525 mg) was 56964.59 ng·h/mL and the “AUC0-last Geometric Mean” value (525 mg) was 68111.84 ng·h/mL. For the same compound, the “AUC0-∞ Geometric Mean” value (525 mg) was 68514.68 ng·h/mL, the “CL/F Geometric Mean” value (525 mg) was 7.66 L/h and the “CL/F Mean” value (525 mg) was 8.07 L/h. For the same compound, the “CL/F Median” value (525 mg) was 7.64 L/h, the “Cmax Geometric Mean” value (525 mg) was 2294.46 ng/mL and the “Cmax Mean” value (525 mg) was 2350.00 ng/mL. For the same compound, the “Extrapolation Geometric Mean” value (525 mg) was 0.22%, the “Extrapolation Mean” value (525 mg) was 0.59% and the “Extrapolation Median” value (525 mg) was 0.23%. The “Half-Life Lambda Z Geometric Mean” value (525 mg) was 14.70 h, the “Half-Life Lambda Z Median” value (525 mg) was 13.77 h and the “Tmax Geometric Mean” value (525 mg) was 4.94 h. For the same compound, the “Tmax Mean” value (525 mg) was 4.97 h and the “dose proportionality slope (power model)” value (all doses, 95% CI 0.8358-0.9417) was 0.8888.
